We go through 16 compounds from EP0733369A1, “Protease inhibitors, a DNA construct for the expression of a protease and a process for measuring proteases and/or protease inhibitors” (Stichting REGA V.Z.W., priority 1995, dated 1996).

“Also recorded” adds a separate entry of the source. Counter-ions that a name gives are not always drawn.

The target of assay [1] is T1, gelatinase B from neutrophils (Homo sapiens, UniProt P14780). The assay is described as follows: gelatinase (inhibitor) microtiter plate assay with biotinylated gelatin. The arrangement: endogenous in cells; host or cells: human neutrophils stimulated with lipopolysaccharide; conditioned medium. In kind it is biochemical. Conditions: for gelatinase B inhibitory activity in the plate assay (in words): qualitative statements. The method, then: The measurement of gelatinase activity was based on the detection of non-degraded biotinylated gelatin with a streptavidin-peroxidase conjugate. This test is based on the biotin-avidin method described by Sorbi et al. (25) but modified to a one plate assay (schematically represented in Fig. 1.). Gelatin (1mg/ml) was dissolved in 0.1 M sodium bicarbonate pH 8.3 by heating to 40°C. Biotin-N-hydroxysuccinimide ester was dissolved in dimethylsulfoxide (Me2SO) and was added to the gelatin in a 15-fold molar excess. The mixture was allowed to react overnight at 4°C and the biotinylated gelatin was then dialyzed against phosphate buffered saline (PBS). Neutrophil granulocyte (Neu) medium was collected from human neutrophils after stimulation with lipopolysaccharide (1µg/ml) overnight at 37°C in Minimal Essential Medium. Cells were removed by 10 min centrifugation at 1000 g. Purified gelatinase was obtained by one-step affinity chromatography of neutrophil medium on a gelatin-sepharose column as described (8).
Modified flat bottom 96-well ELISA plates were coated overnight with 0.5 µg/ml avidin in distilled water. The plates were then blocked with 0.3% bovine serum albumin (BSA, Sigma) in PBS for 1 hour at 37°C. Biotinylated gelatin was diluted to 50 µg/ml and 100µl was added to the avidin-coated wells. After incubation for one hour at 20°C, the plate was rinsed with PBS. Medium containing the secreted gelatinases from human neutrophils (dilution range 1/3-1/3^11) and the inhibitors were diluted in incubation buffer (50 mM Tris-HCl pH 7.5, 10 mM CaCl2, 0.02% (W/V) NaN3, 1% (V/V) Triton X-100) and 100 µl of each were mixed. 190 µl of the mixture was added to the gelatin-coated plates and allowed to digest the gelatin overnight at 37°C. The plates were then washed with PBS and each well was incubated with 100 µl peroxidase-conjugated-streptavidin at a 1:2000 dilution for 1 hour at 37°C. After rinsing the plate, the ABTS substrate was added (0.5 mg/ml solution containing 0.1 M citric acid, 0.2 M Na2HPO4, pH 4.3, 0.07 µl/ml 30% H2O2) and the optical density was read at 405 nm after 10 min. incubation at room temperature. Additional information on published test systems used here for comparison.
Gelatin is biotinylated and bound to avidin-coated microtiter plates. By addition of gelatinases the number of free biotin groups decreases and proportionally less streptavidin-peroxidase is bound to the residual substrate. Bound streptavidin-peroxidase activity is measured spectrophotometrically by reaction of peroxide with ABTS. Inhibition of gelatinase is obtained by the addition of inhibitor to a known amount of gelatinase prior to application to the plates. The peroxidase activity increases proportionally with the inhibitory activity.
Plates were first coated with 10µg/ml avidin and 50µg/ml biotinylated gelatin (theoretically saturating the avidin binding sites). As the sensitivity of the assay is dependent on the detection of the minimal amount of degraded biotinylated gelatin, we investigated wether decreasing the amount of biotin-gelatin (50 µg/ml-23 ng/ml) bound to the avidin-coated (10µg/ml) plate increased the sensitivity of the assay. […] Thus it was verified whether a decrease in the avidin coating could make the assay more sensitive (Fig. 2). […] In all further examples plates were coated with 0.5 µg/ml avidin and 50 µg/ml gelatin-biotin.
The titration curves of gelatinase inhibition were always related to a blanc curve and this for enzyme concentrations within the slope of the curve (vertical dotted lines Fig. 3). The decrease in enzyme activity to which the inhibitor-incubated sample corresponded was defined as the inhibition factor (IF).

The target of assay [2] is T1, gelatinase B from neutrophils. The assay is described as follows: zymography inhibition assay, inhibitor in developing buffer. In kind it is biochemical. The arrangement: The 92 kDa neutrophil gelatinase is indicated with an arrowhead; endogenous in cells; host or cells: human neutrophils; purified from conditioned medium on gelatin-Sepharose. As to conditions: qualitative statements.
Procedure: Quantitative zymography was performed as described (7,8). Briefly, 40 µl of loading buffer was added to 40 µl of each sample and applied on 7.5% polyacrylamide gels which had been co-polymerised with 0.1% (w/v) gelatin. Stacking gels contained 5% polyacrylamide. The gels were run at 4°C for 16h at 90V. The gels were then incubated in washing buffer (50 mM Tris-HCl pH 7.5, 10mM CaCl2, O.O2% (W/V) NaN3, 2.5% (v/v) Triton X-100) at room temperature, 2x20 min to remove sodium dodecyl sulfate and overnight in developing buffer (50 mM Tris-HCl pH 7.5, 10mM CaCl2, O.O2% (w/v) NaN3, 1% (v/v) Triton X-100) at 37°C. The gels were then stained in Coomassie brilliant blue R-250 and destained in methanol/acetic acid. The sites of gelatinase activity appeared as unstained bands on a blue background and were quantified by computerised image analysis through scanning densitometry with a PDI scanner (Pharmacia, Belgium) and the PDI software package. For inhibition experiments, the inhibitors were dissolved in the developing buffer at the appropriate concentration. […] The enzyme activity was developed by staining of the substrate with Coomassie blue and quantification of the substrate digestion by scanning densitometry. […] The enzyme activity was developed by staining of the substrate with Coomassie blue and quantification of the substrate digestion by scanning densitometry. […]

Setting [3] is: tetracycline concentration 1.67 mg/ml.
Setting [4] is: tetracycline concentration 3.33 mg/ml.
Setting [5] is: tetracycline concentration 3.33 mg/ml, HCl.
The mark [6] stands for this setting: tetracycline concentration 0,83 mg/ml.

T1 sequence (P14780 94-707): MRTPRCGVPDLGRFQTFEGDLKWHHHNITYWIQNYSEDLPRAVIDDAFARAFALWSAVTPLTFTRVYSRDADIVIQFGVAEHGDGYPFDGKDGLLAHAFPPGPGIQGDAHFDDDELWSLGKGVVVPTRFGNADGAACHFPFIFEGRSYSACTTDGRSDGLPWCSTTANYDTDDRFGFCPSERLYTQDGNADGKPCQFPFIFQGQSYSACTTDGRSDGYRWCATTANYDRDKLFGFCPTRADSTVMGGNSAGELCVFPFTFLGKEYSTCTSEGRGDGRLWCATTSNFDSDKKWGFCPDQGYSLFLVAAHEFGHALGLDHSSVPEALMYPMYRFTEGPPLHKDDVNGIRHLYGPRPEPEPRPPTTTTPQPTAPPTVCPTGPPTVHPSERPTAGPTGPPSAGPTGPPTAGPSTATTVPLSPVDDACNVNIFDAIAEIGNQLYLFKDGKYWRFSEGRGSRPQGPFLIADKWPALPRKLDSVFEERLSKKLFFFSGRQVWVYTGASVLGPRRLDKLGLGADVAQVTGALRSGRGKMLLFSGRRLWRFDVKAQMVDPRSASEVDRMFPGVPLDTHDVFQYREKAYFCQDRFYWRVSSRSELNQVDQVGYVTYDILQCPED

As to 4-epitetracycline HCl, in assay [1] (setting [3]), the “Inhibition factor (IF)” value came to 3.

With 7-aminominocycline HCl, the “Inhibition factor (IF)” value in assay [1] (setting [4]) was “precipitation”.

On to `Cc1c2c(c(O)c3c(O)ccc(Cl)c13)C(=O)C1(O)C(O)=C(C(N)=O)C(=O)C(N(C)C)C1C2` (centres unmarked) [4-epianhydrochlortetracycline HCl], for which the “gelatinase B inhibitory activity in the plate assay (in words)” value (“gelatinase B inhibitory activity” below) in assay [1] is recorded as “less active”. Further, the “Inhibition factor (IF)” value in assay [1] (setting [5]) is 3.

`Cc1c2c(c(O)c3c(O)cccc13)C(=O)C1(O)C(O)=C(C(N)=O)C(=O)C(N(C)C)C1C2` (centres unmarked) [4-epianhydrotetracycline HCl]: the “gelatinase B inhibitory activity” value in assay [1] is “more active”. Also, the “Inhibition factor (IF)” value in assay [1] (setting [6]) is 2; in assay [1] (setting [3]), 3; in assay [1] (setting [4]) it was “precipitation”.

As for `CN(C)C1C(=O)C(C(N)=O)=C(O)C2(O)C(=O)C3=C(O)c4c(O)ccc(Cl)c4C(C)(O)C3CC12` (centres unmarked) [4-epichlortetracycline HCl], the “gelatinase B inhibitory activity” value in assay [1] is reported as “less active”. Besides, the “Inhibition factor (IF)” value in assay [1] (setting [6]) was 3; in assay [1] (setting [3]) it was 9; in assay [1] (setting [4]), “precipitation”.

In the case of `CN(C)c1ccc(O)c2c1C[C@H]1C[C@H]3[C@@H](N(C)C)C(O)=C(C(N)=O)C(=O)[C@@]3(O)C(O)=C1C2=O` [4-epiminocycline HCl], in assay [1], the “gelatinase B inhibitory activity” value was “less active”. Also, the “Inhibition factor (IF)” value in assay [1] (setting [4]) is 3.

For `CN(C)C1C(=O)C(C(N)=O)=C(O)C2(O)C(=O)C3=C(O)c4c(O)cccc4C(C)(O)C3C(O)C12` (centres unmarked) [4-epioxytetracyline base], in assay [1], the “gelatinase B inhibitory activity” value is “more active”. For the same compound, the “Inhibition factor (IF)” value was determined as 3 in assay [1] (setting [3]) and 20 in assay [1] (setting [4]).

On to `CN(C)[C@@H]1C(O)=C(C(N)=O)C(=O)[C@@]2(O)C(O)=C3C(=O)c4c(O)cccc4C[C@H]3C[C@@H]12.Cl` [6-deoxy-6-demethyltetracycline HCl], for which the results for the “Inhibition factor (IF)” value in assay [1] (setting [6]), in assay [1] (setting [3]) and in assay [1] (setting [4]) were 3, 5 and 8, respectively.

In the case of `Cc1c2c(c(O)c3c(O)ccc(Cl)c13)C(=O)C1(O)C(O)=C(C(N)=O)C(=O)C(N(C)C)C1C2` (centres unmarked) [anhydrochlortetracycline HCl], the “Inhibition factor (IF)” value in assay [1] (tetracycline concentration 1.67 mg/ml, HCl) came out at 2; in assay [1] (setting [5]), 6.

On to `CN(C)[C@@H]1C(O)=C(C(N)=O)C(=O)[C@@]2(O)C(O)=C3C(=O)c4c(O)ccc(Cl)c4[C@@](C)(O)[C@H]3C[C@@H]12` [chlortetracycline HCl], for which the “gelatinase B inhibitory activity” value in assay [1] (listed as Chlortetracycline HCl, HCl) is “most potent inhibitor”; in assay [1] (listed as Chlortetracycline, HCl), “more active as a gelatinase inhibitor than the antibiotically more potent minocycline; also recorded: much more active than tetracycline; also recorded: most active”. Further, the “Inhibition factor (IF)” value in assay [1] (setting [6]) is on record as 9; in assay [1] (setting [3]), 27; in assay [1] (setting [4]), 45.

For `CN(C)[C@@H]1C(O)=C(C(N)=O)C(=O)[C@@]2(O)C(O)=C3C(=O)c4c(O)ccc(Cl)c4[C@@H](O)[C@H]3C[C@@H]12` [demethylchlortetracycline HCl], the “gelatinase B inhibitory activity” value in assay [1] was “not active”.

As to `C[C@H]1c2cccc(O)c2C(=O)C2=C(O)[C@]3(O)C(=O)C(C(N)=O)=C(O)[C@@H](N(C)C)[C@@H]3[C@@H](O)[C@@H]21` [doxycycline hyclate], the “gelatinase B inhibitory activity” value in assay [1] was “not active”.

Regarding `CN(C)[C@@H]1C(=O)C(C(N)=O)=C(O)[C@@]2(O)C(=O)C[C@@H]([C@]3(C)OC(=O)c4c(O)ccc(Cl)c43)C[C@@H]12` [isochlortetracycline HCl], in assay [1] (setting [4]), the “Inhibition factor (IF)” value came to 3.

`C=C1c2cccc(O)c2C(=O)C2=C(O)[C@]3(O)C(=O)C(C(N)=O)=C(O)[C@@H](N(C)C)[C@@H]3[C@@H](O)[C@H]12` [metacycline HCl]: the “gelatinase B inhibitory activity” value in assay [1] is recorded as “very active”. Also, the “Inhibition factor (IF)” value in assay [1] (setting [6]) worked out at 3; in assay [1] (setting [3]), 8; in assay [1] (setting [4]), 27.

Consider `CN(C)c1ccc(O)c2c1C[C@H]1C[C@H]3[C@H](N(C)C)C(O)=C(C(N)=O)C(=O)[C@@]3(O)C(O)=C1C2=O` [minocycline HCl], for which the “gelatinase B inhibitory activity” value in assay [1] (listed as minocyclin, HCl) was “active as an inhibitor”; in assay [1] (listed as minocycline, HCl), “confirmed in the plate assay; also recorded: active”. Further, the “Inhibition factor (IF)” value in assay [1] (setting [3]) was determined as 3; in assay [1] (setting [4]), 8. The “inhibition of gelatinase B on zymography (in words)” value in assay [2] is reported as “inhibits gelatinase B in a dose-dependent way”.

As for `CN(C)[C@@H]1C(O)=C(C(N)=O)C(=O)[C@@]2(O)C(O)=C3C(=O)c4c(O)cccc4[C@@](C)(O)[C@H]3C[C@@H]12` [tetracycline HCl], the “Inhibition factor (IF)” value in assay [1] (setting [3]) is listed as 3; in assay [1] (setting [4]), 8.
